Results: US5482931A, “Stabilized pharmaceutical peptide compositions” (Ferring AB, priority 1993, dated 1996)

Columns and labels:
[1] = Adsorption of 125I-marked desmopressin to tubes of polystyrene, polypropene and glass; assay type: physicochemical; settings: 24 h, ambient temperature
Description: Sterile aqueou solutions of desmopressin marked with ^125 I (appr. 10,000 CPM/ml) containing benzalkonium chloride+saline, chlorobutanol+saline, or saline only, were all incubated in tubes of polystyrene, polypropene and glass for 24 h at ambient temperature.

[2] = aqueous solution of desmopressin; cited from earlier work

amount of desmopressin recovered from the plastic tubes ([1]; preservative-free solution (saline only), plastic tubes): about half
adsorption of desmopressin to tubes ([1]; solution containing benzalkonium chloride + saline): insignificant adsorption
adsorption of desmopressin to tubes ([1]; solution containing chlorobutanol + saline): insignificant adsorption
Compound: NC(=O)CC[C@@H]1NC(=O)[C@H](Cc2ccccc2)NC(=O)[C@H](Cc2ccc(O)cc2)NC(=O)CCSSC[C@@H](C(=O)N2CCC[C@H]2C(=O)N[C@H](CCCN=C(N)N)C(=O)NCC(N)=O)NC(=O)[C@H](CC(N)=O)NC1=O [desmopressin, 1-deamino-8-D-arginine vasopressin]
storage temperature required for the aqueous solution [2]: ≤ 8 °C
